# Assay results: article PMC10857906, “PROTAC-mediated NR4A1 degradation as a novel strategy for cancer immunotherapy” (The Journal of Experimental Medicine, 2024)
# pKd: −log10 of the molar value.
# What was measured:
# NR4A1 [1] = biological target: T1, NR4A1 (Homo sapiens, UniProt P22736); experiment: NR4A1 degradation in CHL-1 human melanoma cells (immunoblotting); format: cell-based; details: CHL-1 cells, 16 h
# T1 construct: NR-V04 effectively promoted the degradation of NR4A1 in two human melanoma cell lines within 16 h; endogenous in cells; host or cells: CHL-1, A375, WM164, M229 human melanoma cells
# T1 sequence (P22736 whole entry): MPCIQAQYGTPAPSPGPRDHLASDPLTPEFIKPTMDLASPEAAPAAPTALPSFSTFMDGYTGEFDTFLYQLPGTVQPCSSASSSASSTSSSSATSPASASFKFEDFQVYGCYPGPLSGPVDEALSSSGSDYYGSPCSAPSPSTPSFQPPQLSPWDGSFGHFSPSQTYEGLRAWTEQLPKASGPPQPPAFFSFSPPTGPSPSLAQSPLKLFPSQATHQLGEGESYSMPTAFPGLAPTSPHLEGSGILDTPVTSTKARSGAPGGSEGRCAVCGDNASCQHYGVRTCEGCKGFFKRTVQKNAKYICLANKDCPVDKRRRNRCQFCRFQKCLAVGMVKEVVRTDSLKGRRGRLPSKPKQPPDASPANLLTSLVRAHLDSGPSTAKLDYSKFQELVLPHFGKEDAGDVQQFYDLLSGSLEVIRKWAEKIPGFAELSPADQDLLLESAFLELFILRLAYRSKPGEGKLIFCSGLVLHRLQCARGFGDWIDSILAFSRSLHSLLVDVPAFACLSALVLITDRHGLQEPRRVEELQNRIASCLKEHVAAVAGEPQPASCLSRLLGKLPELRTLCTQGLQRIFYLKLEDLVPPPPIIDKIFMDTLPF
# Experimental: Human melanoma cell lines: A375 and CHL-1 (gifts from Dr. D. Zhou, the University of Texas Health Science Center, San Antonio, TX, USA) were cultured in Dulbecco’s Modified Eagles’ Medium (DMEM, D5796; Sigma-Aldrich), WM164 and M229 (gifts from Dr. K.S.M. Smalley’s lab) were cultured in RPMI-1640 (R8758; Sigma-Aldrich). Mouse melanoma cell lines: B16F10 (CRL-6475, ATCC) was cultured in DMEM, SW1 and SM1 (gift from Dr. K.S.M. Smalley, Moffitt Cancer Center, Tampa, FL, USA) were cultured in RPMI. Human epithelial kidney cell lines: HEK293T (293T, CRL-3216; ATCC) and Vhl-KO-293T (gift from Dr. D. Zhou, the University of Texas Health Science Center, San Antonio, TX, USA) were cultured in DMEM. Mouse colon cancer cell lines: MC38 (ENH204-FP; Kerafast Inc.) was cultured in DMEM supplemented with 1 mM glutamine, […] non-essential amino acids (11140050; Thermo Fisher Scientific), 1 mM sodium pyruvate (11360070; Thermo Fisher Scientific), and 10 mM HEPES (15630080; Thermo Fisher Scientific). All cell culturing media were supplemented with 10% fetal bovine serum (FBS, F2442; Sigma-Aldrich), 100 U/ml penicillin, and 100 µg/ml streptomycin (P4333; Sigma-Aldrich).
# Samples were lysed using radioimmunoprecipitation assay buffer (RIPA) lysis buffer (150 mM NaCl, 5 mM EDTA, 50 mM Tris pH 8.0, 0.5% sodium deoxycholate, 1% NP-40, 0.1% SDS) supplemented with 1 mM dithiothreitol and protease inhibitors. The lysates were separated by SDS-PAGE and analyzed using standard western blotting procedures ([Khan et al., 2019]). Antibodies: human NR4A1 (ab153914, 1:1,000; Abcam), mouse NR4A1 (14-5965-82, 1:1,000; Invitrogen), NR4A2 (AV38753, 1:1,000; Sigma-Aldrich), NR4A3 (TA804893, 1: 1,000; Thermo Fisher Scientific), VHL (68547, 1:1,000; Cell Signaling), β-actin (13E5, 1:5,000; Cell Signaling), β-tubulin (9F3, 1: 5,000; Cell Signaling), and GAPDH (D16H11, 1: 5,000; Cell Signaling) were employed for protein detection.
# NR4A1 mRNA = NR4A1 mRNA by qPCR in CHL-1 cells; format: cell-based, human; details: 500 nM, ACTB as control
# Experimental: Total RNA was extracted from cells using RNeasy Kits (74004; QIAGEN) following the manufacturer’s instructions. cDNA synthesis was performed using SuperScript III Reverse Transcriptase (18080044; Thermo Fisher Scientific) with 100 ng RNA as the template. Amplification of cDNA was carried out using 2× PowerUP SYBR Green Master Mix (A25778; Thermo Fisher Scientific). Each reaction was conducted in triplicates and results were normalized to the expression of a housekeeping gene. Primer (Eurofins): human β-actin (forward sequence: 5′-CACCATTGGCAATGAGCGGTTC-3′; reverse sequence: 5′-AGGTCTTTGCGGATGTCCACGT-3′) and human NR4A1 (forward sequence: 5′-GGACAACGCTTCATGCCAGCAT-3′; reverse sequence: 5′-CCTTGTTAGCCAGGCAGATGTAC-3′).
# MC38 tumors = experiment: MC38 colon cancer syngeneic tumor model; format: in vivo, mouse; details: MC38 in WT mice, 1.8 mg/kg NR-V04 or 0.75 mg/kg celastrol i.p. twice a week from day 7
# Text: (§1) 7–9-wk-old C57BL/6J, B6.129S2-Ighm^tm1Cgn/J (002288), B6.129S2-Nr4a1^tm1Jmi/J (NR4A1^−/−, 006187), and NOD-SCID interleukin-2 receptor gamma null (NSG) mice were purchased from Jackson Laboratories. For all studies involving NR-V04 and celastrol, the compounds were formulated in 50% phosal PG, 45% miglyol 810N, and 5% polysorbate 80 and administered via i.p. injection.
# (§2) For syngeneic tumor models, 5 × 10^5 cells MC38, Yumm1.7, and Yummer1.7, 1 × 10^5 cells of B16F10 were resuspended in PBS and implanted into 7–9-wk-old mice subcutaneously. For the tumor inhibition experiment, mice were treated with 1.8 mg/kg NR-V04 or 0.75 mg/kg celastrol by i.p. injection twice weekly. For the immune profile experiment, once tumors reached 0.5 cm in diameter, mice were treated with 1.8 mg/kg NR-V04 by i.p. injection twice weekly. For the toxicity experiment, male and female non-tumor-bearing mice were treated with 2 mg/kg NR-V04 for two doses in the first week and 5 mg/kg for another two doses in the second week. Blood samples were taken from the submandibular (facial) vein before each treatment and 42 days later for hematological analysis, and body weight was measured twice per week up to day 42. Mice were euthanized in accordance with the IACUC protocol once the largest tumors reached 2 cm in diameter, and tissues were collected for further analysis.
# B16F10 melanoma = B16F10 melanoma syngeneic tumor model; format: in vivo, mouse; details: B16F10 in WT mice, 1.8 mg/kg NR-V04 or 0.75 mg/kg celastrol i.p. twice a week from day 7
# Text: as §1, §2
# NR4A1 [2] = details: ref Hu et al., 2017; read-out: binding affinity of celastrol to NR4A1 (Kd); cited from earlier work
# NR4A1 and VHL = NR4A1 and VHL (Homo sapiens, UniProt P22736+P40337); experiment: Proximity ligation assay (PLA) for the NR4A1-VHL ternary complex; format: cell-based; parameters: endogenous in cells; host or cells: CHL-1 and A375 human melanoma cells; details: CHL-1 and A375 cells, 500 nM, 16 h, 0.5 μM MG132 pretreatment
# Chain of NR4A1 and VHL (P22736 whole entry): as the sequence (P22736 whole entry) above
# Chain of NR4A1 and VHL (P40337 whole entry): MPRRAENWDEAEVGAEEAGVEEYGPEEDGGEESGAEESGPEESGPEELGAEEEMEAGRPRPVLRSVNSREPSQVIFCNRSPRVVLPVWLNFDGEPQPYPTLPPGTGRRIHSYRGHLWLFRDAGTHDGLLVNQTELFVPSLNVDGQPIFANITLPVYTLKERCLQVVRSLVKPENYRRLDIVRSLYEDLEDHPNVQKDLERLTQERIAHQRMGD
# Chain of NR4A1 and VHL (Q15369 whole entry partner): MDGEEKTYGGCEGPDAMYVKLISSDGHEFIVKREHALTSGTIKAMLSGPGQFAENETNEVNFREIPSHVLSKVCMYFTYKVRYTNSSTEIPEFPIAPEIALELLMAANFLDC
# Chain of NR4A1 and VHL (Q15370 whole entry partner): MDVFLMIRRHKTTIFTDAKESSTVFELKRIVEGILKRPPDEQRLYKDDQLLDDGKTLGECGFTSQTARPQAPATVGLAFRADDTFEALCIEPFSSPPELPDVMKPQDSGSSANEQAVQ
# Experimental: 5 × 10^4 CHL-1 and A375 cells were cultured in Nunc Lab-Tek Chamber Slide (177402; Thermo Fisher Scientific). The cells were treated with DMSO, 500 nM celastrol, and 500 nM NR-V04 for 16 h with MG132 inhibitor. The PLA was conducted with Duolink In Situ Red Starter Kit Mouse/Rabbit (DUO92101; Sigma-Aldrich) following the standard protocol. Additionally, a non-stain cell group was included as a negative control to account for background signal during PLA assay. The signal was detected using a confocal microscope (LSM 710; Zeiss). Primary antibody: NR4A1 (HPA059742, 2 μg/ml, isotype-rabbit; Sigma-Aldrich) and VHL (MA5-13940, 2 μg/ml, isotype-mouse; Thermo Fisher Scientific).
smiles,measurement,setting,value
"CC1=C(O)C(=O)C=C2C1=CC=C1[C@@]2(C)CC[C@@]2(C)[C@@H]3C[C@](C)(C(=O)O)CC[C@]3(C)CC[C@]12C [celastrol, reference compound]","NR4A1 protein level, initial screening","NR4A1 [1]; 250 nM, immunoblotting and densitometry",did not alter the protein level of NR4A1
same,"NR4A1 protein level, dose response",NR4A1 [1],did not change NR4A1 protein level
same,NR4A1 mRNA level,NR4A1 mRNA,increase in NR4A1 mRNA levels after 2 h
same,tumor growth,MC38 tumors,failure to inhibit tumor growth of MC38 tumors
same,tumor growth,B16F10 melanoma,increased growth of B16F10 tumors
same,pKd,NR4A1 [2],6.54
same,PLA signals (ternary complex formation NR4A1-VHL),NR4A1 and VHL,did not
